The text below walks through data of US10206908B2, “3-(1H-pyrrolo[3,2-C]pyridin-2-YL)-1H-pyrazolo[3,4-C]pyridines and therapeutic uses thereof” (Samumed, LLC, priority 2015, dated 2019).

Common to all, as to format: cell-based
For assay [1], the system named is Wnt activity (Sp5-Luc reporter, SW480 colon carcinoma cells). Briefly: Screening assay for Wnt activity: Sp5-Luc reporter gene assay in SW480 colon carcinoma cells. The conditions noted are these: Homo sapiens; for inhibition at 10 µM: SW480, read-out: percent inhibition at 10 μM; for EC50: Sp5-Luc reporter, SW480 cells, overnight incubation. The essentials:
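SW480 colon carcinoma cells stably carrying Sp5 promoter (eight TCF/LEF sites)-driven firefly luciferase, plated at 4,000 cells/well in 1% FBS medium and incubated overnight at 37° C. Luminescence normalised to DMSO-only cells; EC50 from four-parameter variable-slope nonlinear regression.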
On the technique in general: Reporter assays use an easily measured gene product as a stand-in for the process of interest.

Assay [2] deals with SW480 colon cancer cells. Briefly: Cell viability assay (CellTiter-Blue) in SW480 colon cancer cells. The following applies: Homo sapiens; for EC50: 96 h, SW480 cell viability, four days; for inhibition at 10 µM: SW480, read-out: percent inhibition at 10 μM. The essentials:
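Fluorescence from resazurin reduced to resorufin by metabolically active cells was the read-out, taken after ~3 h with CellTiter-Blue.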
On the technique in general: The colour change of resazurin is a common sign of viable cells or microbes.

Assay [3] relates to primary human fibroblasts derived from IPF patients (LL29 cells) treated with TGF-β1. Briefly: Inhibition of the fibrotic process: αSMA staining in TGF-β1 treated LL29 fibroblasts. The following applies: Fibroblast; for EC50: 96 h, % αSMA positive LL29 cells, TGF-β1 20 ng/mL, 4 days. The essentials:
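Read-out after 4-day incubation: αSMA staining with 1 μM SYTOX green nuclear counterstain (30 min, room temperature). Cells were LL29 primary fibroblasts from IPF patients, in 1% FBS F12, exposed to TGF-β1 with test compound, referenced to TGF-β1/DMSO control wells.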

Assay [4] has as its system primary human mesenchymal stem cells (hMSCs). Briefly: Induction of chondrogenesis in hMSCs (chondrogenic nodules, Rhodamine B/Nile Red). The following applies: 6 days; for EC50: concentration required to induce 50% levels of chondrogenesis vs TGF-β3, read-out: Conc (nM) of 50% TGF-β3 activity; for Emax: relative to TGF-β3 (10 ng/mL) positive control, read-out: Max. Activity as % TGF-β3 activity. An excerpt: Representative compounds were screened using primary human mesenchymal stem cells (hMSCs) to determine their ability to induce chondrogenesis (process by which cartilage is developed).
Human Mesenchymal Stem Cell Culture: Primary human mesenchymal stem cells (hMSCs) were purchased from Lonza (Walkersville, Md.) and expanded in Mesenchymal Stem Cell Growth Media (Lonza). Cells between passage 3 and 6 were used for the experiments.
Number of nodules in each well was normalized to the average of 3 DMSO treated wells on the same plate using Excel (Microsoft Inc.). The normalized averages (fold change over DMSO) of 3 replicate wells for each compound concentration were calculated. Due to solubility limitations of some of the compounds, curve fitting was incomplete leading to inaccurate EC50 determinations.
Using TGF-β3 as a positive control, the concentration of representative compounds required to induce 50% levels of chondrogenesis is reported. In addition, the maximum activity of each compound and the respective dose that each compound reached maximum chondrogenesis activity is reported.

The subject of assay [5] is IL-6 (THP-1 cells). Briefly: IL-6 inhibition in LPS-stimulated THP-1 monocytes (HTRF). The following applies: Homo sapiens; for EC50: IL-6, THP-1 cells, LPS 500 ng/mL, 22 hours; for inhibition at 10 µM: THP-1, read-out: percent inhibition at 10 μM. The essentials: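 THP-1 cells kept 24 h in 1% FBS medium, exposed to compound 2 h at 37 °C, then stimulated with 500 ng/mL LPS for 22 h. Secreted IL-6 quantified by HTRF (665/620 nm ratio), duplicates. Values normalized to DMSO; EC50 by four-parameter variable-slope regression.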

Turning to `CCC(=O)Nc1cncc(-c2cc3c(-c4cc5c(N6CCN(C)CC6)nccc5[nH]4)n[nH]c3cn2)c1` [Compound 225, N-(5-(3-(4-(4-Methylpiperazin-1-yl)-1H-pyrrolo[3,2-c]pyridin-2-yl)-1H-pyrazolo[3,4-c]pyridin-5-yl)pyridin-3-yl)propionamide], the results for the inhibition at 10 µM in assay [1] and in assay [2] were 52.4% and 7.9%, respectively. Moreover, the EC50 in assay [1] is greater than 10000 nM; in assay [2], greater than 10000 nM; in assay [3], 5300 nM; in assay [4], 30 nM; in assay [5], 743 nM. The Emax in assay [4] is 70%.

On to `Cc1ccncc1-c1cc2c(-c3cc4c(-c5ccc(F)cc5)nccc4[nH]3)n[nH]c2cn1` [Compound 33, 3-(4-(4-Fluorophenyl)-1H-pyrrolo[3,2-c]pyridin-2-yl)-5-(4-methylpyridin-3-yl)-1H-pyrazolo[3,4-c]pyridine], for which the EC50 was found to be 595 nM in assay [1], 716 nM in assay [2], 266 nM in assay [3] and 489 nM in assay [5]. Moreover, the Emax in assay [4] was 24%.

Consider `CN(C)c1cncc(-c2cc3c(-c4cc5cnccc5[nH]4)n[nH]c3cn2)c1` [Compound 259, 5-(3-(1H-Pyrrolo[3,2-c]pyridin-2-yl)-1H-pyrazolo[3,4-c]pyridin-5-yl)-N,N-dimethylpyridin-3-amine], for which the EC50 in assay [1] came out at 3060 nM; in assay [2], 1600 nM; in assay [3], 401 nM; in assay [4], 300 nM; in assay [5] it was 2220 nM. Further, in assay [4], the Emax was determined as 101%.

Regarding `Fc1ccccc1-c1nccc2[nH]c(-c3n[nH]c4cnc(-c5cncnc5)cc34)cc12` [Compound 83, 3-(4-(2-Fluorophenyl)-1H-pyrrolo[3,2-c]pyridin-2-yl)-5-(pyrimidin-5-yl)-1H-pyrazolo[3,4-c]pyridine], the EC50 in assay [1] is 2140 nM; in assay [2] it was 1600 nM; in assay [3] it was 1040 nM; in assay [5] it was greater than 10000 nM. Besides, the Emax in assay [4] was found to be 47%. Also, in assay [5], the inhibition (commonly the percentage by which the read-out fell short of the control) at 10 µM was 27.3%.

Turning to `O=C(Nc1cncc(-c2cc3c(-c4cc5c(-c6ccccc6F)nccc5[nH]4)n[nH]c3cn2)c1)C1CCC1` [Compound 77, N-(5-(3-(4-(2-Fluorophenyl)-1H-pyrrolo[3,2-c]pyridin-2-yl)-1H-pyrazolo[3,4-c]pyridin-5-yl)pyridin-3-yl)cyclobutanecarboxamide], the EC50 in assay [1] came out at 1250 nM; in assay [2], 4280 nM; in assay [3], 2820 nM; in assay [5], 2800 nM. In addition, the Emax in assay [4] turned out to be 44%.

`O=C(Nc1cncc(-c2cc3c(-c4cc5cnccc5[nH]4)n[nH]c3cn2)c1)C1CCCCC1` [Compound 275, N-(5-(3-(1H-Pyrrolo[3,2-c]pyridin-2-yl)-1H-pyrazolo[3,4-c]pyridin-5-yl)pyridin-3-yl)cyclohexanecarboxamide]: the EC50 amounted to 1620 nM in assay [1]; 5200 nM in assay [2]; 1880 nM in assay [3]; 30 nM in assay [4]; 2690 nM in assay [5]. For the same compound, in assay [4], the Emax stood at 59%.

As for `CN(C)c1cncc(-c2cc3c(-c4cc5c(-c6cccs6)nccc5[nH]4)n[nH]c3cn2)c1` [Compound 343, N,N-Dimethyl-5-(3-(4-(thiophen-2-yl)-1H-pyrrolo[3,2-c]pyridin-2-yl)-1H-pyrazolo[3,4-c]pyridin-5-yl)pyridin-3-amine], the EC50 is 1490 nM in assay [1]; 611 nM in assay [2]; 694 nM in assay [3]; 300 nM in assay [4]; greater than 10000 nM in assay [5]. The Emax in assay [4] amounted to 51%. For the same compound, in assay [5], the inhibition at 10 µM is 0%.

Regarding `CN1CCN(c2nccc3[nH]c(-c4n[nH]c5cnc(-c6cncc(NC(=O)C7CCCCC7)c6)cc45)cc23)CC1` [Compound 247, N-(5-(3-(4-(4-Methylpiperazin-1-yl)-1H-pyrrolo[3,2-c]pyridin-2-yl)-1H-pyrazolo[3,4-c]pyridin-5-yl)pyridin-3-yl)cyclohexanecarboxamide], the EC50 in assay [1] is 3420 nM; in assay [2] it was greater than 10000 nM; in assay [3], 2990 nM; in assay [4], 10 nM; in assay [5] it was 4600 nM. For the same compound, in assay [2], the inhibition at 10 µM came out at 40.3%. The Emax in assay [4] was found to be 61%.

With `O=C(Nc1cncc(-c2cc3c(-c4cc5cnccc5[nH]4)n[nH]c3cn2)c1)C1CC1` [Compound 272, N-(5-(3-(1H-Pyrrolo[3,2-c]pyridin-2-yl)-1H-pyrazolo[3,4-c]pyridin-5-yl)pyridin-3-yl)cyclopropanecarboxamide], the EC50 is 1540 nM in assay [1]; greater than 10000 nM in assay [2]; 1900 nM in assay [3]; 30 nM in assay [4]; greater than 10000 nM in assay [5]. The inhibition at 10 µM in assay [2] was 18.6%; in assay [5], 9.6%. The Emax in assay [4] was found to be 58%.

Turning to `CS(=O)(=O)NCc1cc(F)cc(-c2nccc3[nH]c(-c4n[nH]c5cnc(-c6cncc(OCc7ccccc7)c6)cc45)cc23)c1` [Compound 774, N-(3-(2-(5-(5-(Benzyloxy)pyridin-3-yl)-1H-pyrazolo[3,4-c]pyridin-3-yl)-1H-pyrrolo[3,2-c]pyridin-4-yl)-5-fluorobenzyl)methanesulfonamide], the EC50 came to 1510 nM in assay [1]; 2450 nM in assay [2]; 363 nM in assay [3]; 300 nM in assay [4]; 1100 nM in assay [5]. The Emax in assay [4] is 115%.

`Cc1ccncc1-c1cc2c(-c3cc4cnccc4[nH]3)n[nH]c2cn1` [Compound 257, 5-(4-Methylpyridin-3-yl)-3-(1H-pyrrolo[3,2-c]pyridin-2-yl)-1H-pyrazolo[3,4-c]pyridine]: the EC50 is 389 nM in assay [1]; 798 nM in assay [2]; 376 nM in assay [3]; 10 nM in assay [4]; 944 nM in assay [5]. Further, the Emax in assay [4] came out at 61%.

Take `CS(=O)(=O)NCc1cc(F)cc(-c2nccc3[nH]c(-c4n[nH]c5cnc(-c6cncc(NC(=O)C7CCC7)c6)cc45)cc23)c1` [Compound 497, N-(5-(3-(4-(3-Fluoro-5-(methylsulfonamidomethyl)phenyl)-1H-pyrrolo[3,2-c]pyridin-2-yl)-1H-pyrazolo[3,4-c]pyridin-5-yl)pyridin-3-yl)cyclobutanecarboxamide]: the inhibition at 10 µM in assay [1] is 27.2%; in assay [2] it was 12.8%; in assay [3] (read-out: percent inhibition at 10 μM) it was 0%; in assay [5] it was 38.8%. Further, the EC50 in assay [1], in assay [2], in assay [3] and in assay [5] was greater than 10000 nM in each case. For the same compound, in assay [4], the Emax was 16%.

`O=C(Nc1cncc(-c2cc3c(-c4cc5c(N6CCCCC6)nccc5[nH]4)n[nH]c3cn2)c1)C1CCC1` [Compound 189, N-(5-(3-(4-(Piperidin-1-yl)-1H-pyrrolo[3,2-c]pyridin-2-yl)-1H-pyrazolo[3,4-c]pyridin-5-yl)pyridin-3-yl)cyclobutanecarboxamide]: the EC50 in assay [1] came to 4070 nM; in assay [2] it was 4890 nM; in assay [3] it was 1220 nM; in assay [5], 3430 nM. The Emax in assay [4] stood at 42%.

As to `Fc1ccccc1-c1nccc2[nH]c(-c3n[nH]c4cnc(-c5cn[nH]c5)cc34)cc12` [Compound 539, 3-(4-(2-Fluorophenyl)-1H-pyrrolo[3,2-c]pyridin-2-yl)-5-(1H-pyrazol-4-yl)-1H-pyrazolo[3,4-c]pyridine], the EC50 in assay [1] was 30 nM; in assay [2], greater than 10000 nM; in assay [3], 76 nM; in assay [4], 10 nM; in assay [5], 393 nM. For the same compound, in assay [2], the inhibition at 10 µM came to 44.4%. Also, the Emax in assay [4] turned out to be 89%.
